Positions of bridges follow the written chain, without caps; N, C: chain ends. Residues, ends and D or L forms follow the SMILES beside them.
Experiments:
GABABR-coupled CaV2.2 [1] = settings: cited from earlier work
GABABR-coupled CaV2.2 [2] = target: T1, GABABR-coupled CaV2.2 (Homo sapiens, UniProt O75899+Q9UBS5); assay: cell-based; design: species or system rat Cav2.2; settings: for inhibition at 1 µM: HEK293, read-out: Inhibition Efficacy (1 µM)%, SEM; for IC50: IC50 (nM) (95% Confidence Interval)
T1 construct: expressed in transfected cells

α3β4 nAChR = target: T2, α3β4 nAChR (Rattus norvegicus, UniProt P04757+P12392); format: cell-based; settings: SEM
T2 construct: expressed in transfected cells; host or cells: Xenopus oocytes, cRNA injected

α4β2 nAChR = target: T3, α4β2 nAChR (Rattus norvegicus, UniProt P09483+P12390); format: cell-based; settings: SEM
T3 construct: expressed in transfected cells; host or cells: Xenopus oocytes, cRNA injected

α3β2 nAChR = target: T4, α3β2 nAChR (Rattus norvegicus, UniProt P04757+P12390); format: cell-based; settings: SEM
T4 construct: expressed in transfected cells; host or cells: Xenopus oocytes, cRNA injected

α9α10 nAChR = target: T5, α9α10 nAChR (Rattus norvegicus, UniProt P43144+Q9JLB5); format: cell-based; settings: SEM
T5 construct: expressed in transfected cells; host or cells: Xenopus oocytes, cRNA injected

α7 nAChR = target: T6, α7 nAChR (Rattus norvegicus, UniProt Q05941); format: cell-based; settings: SEM
T6 construct: expressed in transfected cells; host or cells: Xenopus oocytes, cRNA injected

α4β4 nAChR = target: T7, α4β4 nAChR (Rattus norvegicus, UniProt P09483+P12392); format: cell-based; settings: SEM
T7 construct: expressed in transfected cells; host or cells: Xenopus oocytes, cRNA injected

CaV2.2 = target: T8, CaV2.2 (Rattus norvegicus, UniProt Q02294); format: cell-based
T8 construct: expressed in transfected cells; host or cells: HEK293

α2β4 nAChR = target: T9, α2β4 nAChR (Rattus norvegicus, UniProt P12389+P12392); format: cell-based; settings: SEM
T9 construct: expressed in transfected cells; host or cells: Xenopus oocytes, cRNA injected
T9 sequence (P12389 28-511 limits assumed): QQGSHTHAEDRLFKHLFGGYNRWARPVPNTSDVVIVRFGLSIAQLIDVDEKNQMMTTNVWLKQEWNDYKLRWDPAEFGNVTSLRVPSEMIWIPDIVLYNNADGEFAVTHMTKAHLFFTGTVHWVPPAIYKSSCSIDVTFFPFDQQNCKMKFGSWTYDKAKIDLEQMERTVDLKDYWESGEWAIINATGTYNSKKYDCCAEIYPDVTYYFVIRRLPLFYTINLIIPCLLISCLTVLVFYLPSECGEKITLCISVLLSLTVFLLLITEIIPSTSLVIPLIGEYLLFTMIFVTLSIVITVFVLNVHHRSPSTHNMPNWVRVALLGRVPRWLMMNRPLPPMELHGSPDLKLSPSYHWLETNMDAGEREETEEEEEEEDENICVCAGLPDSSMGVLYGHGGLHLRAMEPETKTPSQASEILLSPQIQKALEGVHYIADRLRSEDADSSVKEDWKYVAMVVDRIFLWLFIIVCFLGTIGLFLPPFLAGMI
T9 sequence (P12392 21-495 limits assumed): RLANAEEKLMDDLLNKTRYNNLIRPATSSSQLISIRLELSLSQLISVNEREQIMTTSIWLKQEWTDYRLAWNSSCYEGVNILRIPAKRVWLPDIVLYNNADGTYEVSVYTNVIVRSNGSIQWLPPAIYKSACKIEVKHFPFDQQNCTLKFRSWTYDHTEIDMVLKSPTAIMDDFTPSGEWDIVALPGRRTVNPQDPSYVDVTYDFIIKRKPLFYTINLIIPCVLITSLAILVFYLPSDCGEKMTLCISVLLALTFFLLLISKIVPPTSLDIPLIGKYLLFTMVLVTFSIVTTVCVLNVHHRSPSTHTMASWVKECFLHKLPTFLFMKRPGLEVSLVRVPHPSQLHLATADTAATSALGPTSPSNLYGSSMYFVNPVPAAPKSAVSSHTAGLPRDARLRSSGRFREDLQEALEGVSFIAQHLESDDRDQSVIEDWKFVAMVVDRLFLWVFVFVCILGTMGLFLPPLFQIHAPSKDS

T1 sequence (Q9UBS5 15-961 limits assumed): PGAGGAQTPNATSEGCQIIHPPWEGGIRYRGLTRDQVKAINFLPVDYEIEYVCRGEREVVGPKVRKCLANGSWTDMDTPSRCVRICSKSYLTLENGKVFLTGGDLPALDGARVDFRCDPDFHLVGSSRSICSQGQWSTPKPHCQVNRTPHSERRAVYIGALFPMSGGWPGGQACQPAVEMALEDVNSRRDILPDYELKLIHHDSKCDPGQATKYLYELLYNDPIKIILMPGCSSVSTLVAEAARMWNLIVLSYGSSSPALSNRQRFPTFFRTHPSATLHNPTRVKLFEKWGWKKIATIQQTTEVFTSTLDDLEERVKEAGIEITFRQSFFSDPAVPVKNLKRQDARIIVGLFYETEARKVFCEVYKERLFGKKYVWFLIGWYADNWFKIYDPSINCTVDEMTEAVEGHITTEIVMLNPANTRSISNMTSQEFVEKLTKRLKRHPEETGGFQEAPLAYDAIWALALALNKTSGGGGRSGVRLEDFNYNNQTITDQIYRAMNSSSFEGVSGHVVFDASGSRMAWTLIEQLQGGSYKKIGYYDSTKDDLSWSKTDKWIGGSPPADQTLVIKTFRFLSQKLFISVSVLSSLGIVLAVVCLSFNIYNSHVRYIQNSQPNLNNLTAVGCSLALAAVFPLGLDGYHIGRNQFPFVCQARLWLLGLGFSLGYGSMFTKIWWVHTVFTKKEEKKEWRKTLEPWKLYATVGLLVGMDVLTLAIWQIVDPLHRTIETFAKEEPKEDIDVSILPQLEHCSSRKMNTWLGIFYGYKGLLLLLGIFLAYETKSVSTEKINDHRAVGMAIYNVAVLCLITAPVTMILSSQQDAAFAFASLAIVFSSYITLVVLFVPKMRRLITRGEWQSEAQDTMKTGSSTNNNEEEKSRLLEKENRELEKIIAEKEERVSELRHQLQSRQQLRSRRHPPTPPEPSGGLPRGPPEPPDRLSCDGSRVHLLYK
T1 sequence (O75899 42-941): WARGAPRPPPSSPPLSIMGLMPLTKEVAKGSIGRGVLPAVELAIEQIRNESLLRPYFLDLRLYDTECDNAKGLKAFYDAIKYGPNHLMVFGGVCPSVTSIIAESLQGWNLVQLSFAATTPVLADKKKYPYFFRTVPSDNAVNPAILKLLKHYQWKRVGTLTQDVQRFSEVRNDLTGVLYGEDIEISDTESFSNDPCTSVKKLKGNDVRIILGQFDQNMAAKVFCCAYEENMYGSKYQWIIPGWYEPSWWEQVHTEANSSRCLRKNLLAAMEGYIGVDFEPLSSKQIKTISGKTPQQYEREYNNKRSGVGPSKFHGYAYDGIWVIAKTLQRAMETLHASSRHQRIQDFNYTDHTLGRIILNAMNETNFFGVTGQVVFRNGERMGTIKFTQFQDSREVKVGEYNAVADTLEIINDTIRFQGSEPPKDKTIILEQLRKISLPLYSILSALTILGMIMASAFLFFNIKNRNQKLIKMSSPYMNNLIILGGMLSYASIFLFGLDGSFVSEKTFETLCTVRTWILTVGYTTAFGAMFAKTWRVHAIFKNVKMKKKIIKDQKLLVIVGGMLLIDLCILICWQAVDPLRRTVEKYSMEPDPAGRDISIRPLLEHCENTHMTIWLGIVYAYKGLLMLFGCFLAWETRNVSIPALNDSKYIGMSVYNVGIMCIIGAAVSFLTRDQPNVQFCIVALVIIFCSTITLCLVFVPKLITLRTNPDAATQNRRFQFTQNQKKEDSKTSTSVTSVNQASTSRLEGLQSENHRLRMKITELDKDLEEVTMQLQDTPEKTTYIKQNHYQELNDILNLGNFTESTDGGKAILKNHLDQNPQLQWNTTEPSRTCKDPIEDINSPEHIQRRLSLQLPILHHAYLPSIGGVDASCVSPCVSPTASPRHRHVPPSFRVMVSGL
T4 sequence (P04757 26-499 limits assumed): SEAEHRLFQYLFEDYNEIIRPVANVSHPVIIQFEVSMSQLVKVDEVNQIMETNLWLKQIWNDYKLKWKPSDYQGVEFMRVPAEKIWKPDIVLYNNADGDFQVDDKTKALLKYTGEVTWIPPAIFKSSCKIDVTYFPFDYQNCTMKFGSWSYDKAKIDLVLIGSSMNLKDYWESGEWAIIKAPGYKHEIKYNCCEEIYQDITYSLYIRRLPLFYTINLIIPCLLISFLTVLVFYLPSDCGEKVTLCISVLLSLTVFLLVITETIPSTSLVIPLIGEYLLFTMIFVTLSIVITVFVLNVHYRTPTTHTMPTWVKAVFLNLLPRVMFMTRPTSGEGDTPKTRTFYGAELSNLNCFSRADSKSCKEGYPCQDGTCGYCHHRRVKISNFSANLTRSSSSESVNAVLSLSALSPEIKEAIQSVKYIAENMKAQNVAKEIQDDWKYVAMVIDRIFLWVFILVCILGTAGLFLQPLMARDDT
T4 sequence (P12390 25-500 limits assumed): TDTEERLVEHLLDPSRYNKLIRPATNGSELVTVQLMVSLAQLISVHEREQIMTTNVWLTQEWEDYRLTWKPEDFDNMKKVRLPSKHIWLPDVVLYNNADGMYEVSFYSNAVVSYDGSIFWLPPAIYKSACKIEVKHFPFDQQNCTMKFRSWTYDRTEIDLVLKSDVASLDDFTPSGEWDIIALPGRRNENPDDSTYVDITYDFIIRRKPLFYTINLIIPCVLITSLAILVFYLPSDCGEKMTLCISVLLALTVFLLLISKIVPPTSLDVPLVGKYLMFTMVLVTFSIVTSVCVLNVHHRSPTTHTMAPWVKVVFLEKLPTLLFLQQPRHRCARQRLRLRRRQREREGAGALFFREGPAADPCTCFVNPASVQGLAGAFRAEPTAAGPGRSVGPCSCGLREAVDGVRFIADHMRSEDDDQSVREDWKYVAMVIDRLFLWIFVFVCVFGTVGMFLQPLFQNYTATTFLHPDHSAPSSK
T2 sequence (P04757 26-499 limits assumed): as the sequence (P04757 26-499 limits assumed) above
T2 sequence (P12392 21-495 limits assumed): as the sequence (P12392 21-495 limits assumed) above
T6 sequence (Q05941 23-502 limits assumed): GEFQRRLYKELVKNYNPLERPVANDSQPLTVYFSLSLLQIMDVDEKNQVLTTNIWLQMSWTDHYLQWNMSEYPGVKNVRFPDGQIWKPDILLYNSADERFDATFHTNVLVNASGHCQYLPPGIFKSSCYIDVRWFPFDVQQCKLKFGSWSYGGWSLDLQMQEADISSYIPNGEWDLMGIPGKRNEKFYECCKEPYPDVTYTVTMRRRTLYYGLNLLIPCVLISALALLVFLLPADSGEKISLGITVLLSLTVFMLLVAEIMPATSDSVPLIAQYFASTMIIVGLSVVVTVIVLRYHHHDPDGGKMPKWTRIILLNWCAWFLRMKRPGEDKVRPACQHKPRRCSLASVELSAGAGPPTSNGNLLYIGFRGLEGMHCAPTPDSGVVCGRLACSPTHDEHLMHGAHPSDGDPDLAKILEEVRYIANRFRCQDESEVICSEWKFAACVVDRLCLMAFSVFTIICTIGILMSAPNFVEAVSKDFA
T3 sequence (P09483 31-630 limits assumed): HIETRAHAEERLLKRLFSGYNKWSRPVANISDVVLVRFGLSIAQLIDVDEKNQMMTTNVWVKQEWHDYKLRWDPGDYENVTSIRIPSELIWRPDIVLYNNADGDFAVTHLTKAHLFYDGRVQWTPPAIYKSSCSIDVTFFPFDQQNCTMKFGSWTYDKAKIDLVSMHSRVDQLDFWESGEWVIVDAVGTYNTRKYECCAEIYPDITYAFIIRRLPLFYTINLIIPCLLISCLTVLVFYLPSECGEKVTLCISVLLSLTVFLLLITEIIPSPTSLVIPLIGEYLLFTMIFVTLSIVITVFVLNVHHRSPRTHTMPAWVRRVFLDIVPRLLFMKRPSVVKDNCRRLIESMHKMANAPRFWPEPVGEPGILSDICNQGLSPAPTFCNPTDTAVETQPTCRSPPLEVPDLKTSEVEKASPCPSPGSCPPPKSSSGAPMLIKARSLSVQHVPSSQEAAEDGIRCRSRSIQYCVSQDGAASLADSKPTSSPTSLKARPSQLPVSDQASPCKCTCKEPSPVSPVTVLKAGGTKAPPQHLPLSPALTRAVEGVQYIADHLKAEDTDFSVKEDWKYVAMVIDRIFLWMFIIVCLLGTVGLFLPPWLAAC
T3 sequence (P12390 25-500 limits assumed): as the sequence (P12390 25-500 limits assumed) above

Compound: Vc1.1
- IC50 (GABABR-coupled CaV2.2 [1]): 2.38 nM

Compound: CC(C)C[C@@H]1NC(=O)[C@H](CC(=O)O)NC(=O)[C@@H]2CCCN2C(=O)[C@H](CC(N)=O)NC(=O)[C@H]([C@@H](C)O)NC(=O)[C@H](C)NC(=O)[C@H](Cc2ccccc2)NC(=O)[C@@H]2CSSC[C@H](NC(=O)CN)C(=O)N[C@@H](CSSC[C@@H](C(N)=O)NC1=O)C(=O)N[C@@H](CO)C(=O)N[C@@H](Cc1ccc(O)cc1)C(=O)N1CCC[C@H]1C(=O)N1CCC[C@H]1C(=O)N2 [AuIB[+15L]]
- inhibition at 1 µM (GABABR-coupled CaV2.2 [2]): 27.9 ± 1.37%

Compound: C[C@@H]1NC(=O)[C@H](Cc2ccccc2)NC(=O)[C@@H]2CSSC[C@H](NC(=O)[C@@H](NC(=O)CN)CSSC[C@@H](C(N)=O)NC(=O)[C@H](CC(=O)O)NC(=O)[C@@H]3CCCN3C(=O)[C@H](CC(N)=O)NC(=O)[C@H]([C@@H](C)O)NC1=O)C(=O)N[C@@H](CO)C(=O)N[C@@H](Cc1ccc(O)cc1)C(=O)N1CCC[C@H]1C(=O)N[C@@H](CCCNC(=N)N)C(=O)N2 [AuIB[P7R](ribbon)] (H-GCCSYPRCFATNPDC-NH2; disulfide 2-15, 3-8)
- Inhibitory effect on α3β4 nAChR (α3β4 nAChR): 39.27 ± 6.45%
- Inhibitory effect on α4β2 nAChR (α4β2 nAChR): 35.92 ± 12.50%
- inhibition at 1 µM (GABABR-coupled CaV2.2 [2]): 51.6 ± 1.86%
- IC50 (GABABR-coupled CaV2.2 [2]): 0.74 nM
- Inhibitory effect on α3β2 nAChR (α3β2 nAChR): 29.25 ± 12.65%
- Inhibitory effect on α9α10 nAChR (α9α10 nAChR): 5.09 ± 7.85%
- Inhibitory effect on α7 nAChR (α7 nAChR): 17.00 ± 0.35%
- Inhibitory effect on α4β4 nAChR (α4β4 nAChR): 30.44 ± 8.03%
- direct inhibitory effect on CaV2.2 (CaV2.2): 14.87 ± 2.42%
- Inhibitory effect on α2β4 nAChR (α2β4 nAChR): 39.43 ± 6.31%

Compound: C[C@@H]1NC(=O)[C@H](Cc2ccccc2)NC(=O)[C@@H]2CSSC[C@H](NC(=O)CN)C(=O)N[C@@H](CSSC[C@@H](C(N)=O)NC(=O)[C@H](CC(=O)O)NC(=O)[C@@H]3CCCN3C(=O)[C@H](CC(N)=O)NC(=O)[C@H]([C@@H](C)O)NC1=O)C(=O)N[C@@H](CO)C(=O)N[C@@H](Cc1ccc(O)cc1)C(=O)N1CCC[C@H]1C(=O)N1CCC[C@H]1C(=O)N2 [AuIB(globular), reference compound]
- inhibition at 1 µM (GABABR-coupled CaV2.2 [2]): 27.4 ± 2.05%
- IC50 (GABABR-coupled CaV2.2 [2]): 1.93 nM

Compound: CC[C@H](C)[C@@H]1NC(=O)[C@H](CC(=O)O)NC(=O)[C@@H]2CCCN2C(=O)[C@H](CC(N)=O)NC(=O)[C@H]([C@@H](C)O)NC(=O)[C@H](C)NC(=O)[C@H](Cc2ccccc2)NC(=O)[C@@H]2CSSC[C@H](NC(=O)CN)C(=O)N[C@@H](CSSC[C@@H](C(N)=O)NC1=O)C(=O)N[C@@H](CO)C(=O)N[C@@H](Cc1ccc(O)cc1)C(=O)N1CCC[C@H]1C(=O)N1CCC[C@H]1C(=O)N2 [AuIB[+15I]]
- inhibition at 1 µM (GABABR-coupled CaV2.2 [2]): 30.4 ± 3.26%

From paper PMC9781320 (Marine Drugs, 2022)
